Results: patent US20240358841A1, “NANOMATERIALS COMPRISING TETRAVALENT LIPID COMPOUNDS” (Beam Therapeutics Inc., priority 2021, published 2024)

Experiments:
Lung = assay: Barcoded pooled LNP biodistribution screen, fold above input (FAI) in lung; type: in vivo; settings: pooled LNP IV tail vein, mice, 4 hours post-dose
Description: (§1) Male and female mice aged approximately 8-12 weeks were used for studies described by the present Example. Each mouse was temporarily restrained and pooled LNP was administered IV via tail vein injection in up to five animals per experiment. Age-matched mice was also used to administer vehicle (1×TBS) via tail vein injection in up to three animals per experiment. Additional routes of administration can also be conducted including intracerebral ventricular (ICV), intracisterna manga (ICM), intrathecal (IT), intramuscular (IM), nebulization, intranasal (IN), subcutaneous (SC), intraarticular, and intradermal (ID). At 4 hours post-dose, tissues including liver, spleen, bone marrow, testes, gastrocnemius, quadricep, lung, heart, kidney, and pancreas may be collected for analysis.
Liver, kidney, lung, and muscle (e.g. skeletal and cardiac) tissues may be mechanically, and then enzymatically digested using a mixture of proteinases, then passed through a 70 μm filter to generate single cell suspensions. Spleen tissues were mechanically digested to generate single cell suspensions. Tissues were treated with ACK buffer to lyse red blood cells, and then stained with fluorescently labeled antibodies for flow cytometry and fluorescence-activated cell sorting (FACS). Commercially available antibodies were used in the present example. Using a BD FACSMelody (Becton Dickinson), samples were acquired via flow cytometry to generate gates prior to sorting. In general, the gating structure was size→singlet cells→live cells→cells of interest. T cells were defined as CD45+CD3+, monocytes are defined as CD45+CD11b+, and B cells are defined as CD45+CD19+. Endothelial cells were defined as CD31+, monocytes and Kupffer cells as CD45+CD11b+ and hepatocytes and myocytes were defined as CD31−/CD45− in the liver and muscle, respectively. Tissues from vehicle-dosed mice were used to set the gates for sorting.
RNA from tissues were extracted using the Reliaprep RNA extraction kit, and libraries were prepared using the RNAseq kit, and sequenced on either a MiSeq or NextSeq500.
(§2) To screen for preferential LNP delivery to a target tissues, the relative abundance of each barcode in one or more target tissues was measured and compared to the relative abundance of each barcode to its corresponding relative input abundance to determine fold above input (FAI) for each barcode. […]
(§3) The FAI is the normalized relative abundance of a barcode in a selected sample as compared to its frequency in the input. […] The FAI value of the barcode was calculated by normalizing the relative abundance in the barcode sequence counts in the isolated samples to its relative abundance in the administration input. […]

Spleen = assay: Barcoded pooled LNP biodistribution screen, fold above input (FAI) in spleen; type: in vivo; settings: pooled LNP IV tail vein, mice, 4 hours post-dose
Description: as §1
(§4) Liver, kidney, lung, and muscle (e.g. skeletal and cardiac) tissues may be mechanically, and then enzymatically digested using a mixture of proteinases, then passed through a 70 μm filter to generate single cell suspensions. Spleen tissues were mechanically digested to generate single cell suspensions. Tissues were treated with ACK buffer to lyse red blood cells, and then stained with fluorescently labeled antibodies for flow cytometry and fluorescence-activated cell sorting (FACS). Commercially available antibodies were used in the present example. Using a BD FACSMelody (Becton Dickinson), samples were acquired via flow cytometry to generate gates prior to sorting. […]
as §2, §3

Liver = assay: Barcoded pooled LNP biodistribution screen, fold above input (FAI) in liver; type: in vivo; settings: pooled LNP IV tail vein, mice, 4 hours post-dose
Description: as §1, §4, §2, §3

[1] = LNP hydrodynamic diameter and polydispersity index by dynamic light scattering (DLS); type: physicochemical; settings: LNP: 47.5% ionizable lipid, 40% cholesterol, 2.5% PEG-2000 DMG, 10% DPSC, N/P 4-8
Description: (§5) LNPs were prepared with 47.5% Ionizable Lipid (e.g., a compound provided herein): 40% cholesterol: 2.5% PEG-2000 DMG; and 10% DPSC and an N/P ratio range of 4-8. LNPs were formed by microfluidic mixing of the lipid and NA solutions using a Precision Nanosystems NanoAssemblr Spark or Benchtop series Instruments, according to the manufacturers protocol. A ratio of aqueous to organic solvent of approximately 2:1 or 3:1 was maintained during mixing using differential flow rates. After mixing, LNPs were collected, diluted in phosphate buffer saline (PBS) or Tris-buffered saline (TBS) (approximately 1:1 v/v). Further buffer exchange was conducted using dialysis in PBS or TBS at 4° C. for 4 to 24 hours against a 20 kDa filter. After this initial dialysis, each individual LNP preparation was characterized via dynamic light scattering (DLS) to measure the size (e.g., diameter) and polydispersity. LNPs falling within specific diameter and polydispersity ranges were pooled, and further dialyzed against PBS or TBS at 4° C. for 1 to 4 hours against a 100 kDa dialysis cassette. After the second dialysis, LNPs were sterile filtered using 0.22 μm filter and stored at 4° C. for further use.
LNP hydrodynamic diameter and polydispersity index (PDI) were measured using high throughput dynamic light scattering (DLS) (Stunner, Unchained Labs). LNPs were diluted 1×TBS or PBS to an appropriate concentration and analyzed.

[2] = LNP encapsulation efficiency by Ribogreen assay; type: physicochemical; settings: LNP: 47.5% ionizable lipid, 40% cholesterol, 2.5% PEG-2000 DMG, 10% DPSC, N/P 4-8
Description: as §5
RNA concentration and encapsulation efficiency were determined by Ribogreen assay (BioTek Synergy LX plate reader).

[3] = screening experiment of Table 4
[4] = screening experiment of Table 5
[5] = screening experiment of Table 6

Row | SMILES | Mean Diameter (nm) [1] [nm] | Mean PDI [1] | Mean Encapsulation Efficiency (%) [2] [%] | other results
1 | CCCCC/C=C\C/C=C\CCCCCCCCC(CCCCCCCC/C=C\C/C=C\CCCCC)OC(=O)CCCN(C)C [MC3] |  |  |  | FAI (Lung) (Lung; screening experiment of Table 3): 0.50; FAI (Lung) (Lung; [3]): 0.86; FAI (Lung) (Lung; [4]): 1.51; FAI (Lung) (Lung; [5]): 1.68; FAI (Spleen) (Spleen; [3]): 1.57; FAI (Spleen) (Spleen; [4]): 0.61; FAI (Spleen) (Spleen; [5]): 1.50; FAI (Liver) (Liver; [3]): 1.00; FAI (Liver) (Liver; [4]): 0.30; FAI (Liver) (Liver; [5]): 0.73
2 | CC/C=C\CCCCOC(CCC(=O)OCC(COC(=O)CCCCCOC(=O)C(CCCC)CCCCCC)(COC(=O)CCCCCOC(=O)C(CCCC)CCCCCC)COC(=O)OCCCN(CC)CC)OCCCC/C=C\CC (stereo not shown) [Compound 7-55] | 80.1 | 0.13 | 87.5 | 
3 | CC/C=C\CCCCOC(=O)CCCCCCC(=O)OCC(COC(=O)CCCCCCC(=O)OCCCC/C=C\CC)(COC(=O)CCCCCCC(=O)OCCCC/C=C\CC)COC(=O)NCCN1CCCC1 [Compound 7-18] | 153.0 | 0.08 | 38.4 | 
4 | CCCCC/C=C\CCOC(=O)CCCCCC(=O)OCC(COC(=O)CCCCCC(=O)OCC/C=C\CCCCC)(COC(=O)CCCN1CCCC1)COC(=O)CC12CC3CC(CC(C3)C1)C2 [Compound 7-53, O′1,O1-(2-((2-(adamantan-1-yl)acetoxy)methyl)-2-(((4-(pyrrolidin-1-yl)butanoyl)oxy)methyl)propane-1,3-diyl) 7,7′-di((Z)-non-3-en-1-yl) di(heptanedioate)] | 157.7 | 0.08 | 43.3 | 
5 | CCCCC/C=C\CCOC(=O)CCCCCC(=O)OCC(COC(=O)CCCCCC(=O)OCC/C=C\CCCCC)(COC(=O)CC12CC3CC(CC(C3)C1)C2)COC(=O)OCCCN(CC)CC [Compound 7-25, O′1,O1-(2-((2-((3r,5r,7r)-adamantan-1-yl)acetoxy)methyl)-2-((((3-(diethylamino)propoxy)carbonyl)oxy)methyl)propane-1,3-diyl) 7,7′-di((Z)-non-3-en-1-yl) di(heptanedioate)] | 123.1 | 0.11 | 66.9 | 
